Where “and” joins values, the source holds several entries; their conditions need not be identical. Identical values can stand only once.
C1CCC2CCCCC2C1 (configuration not stated)
viscosity
Conditions	293.15 K	298.15 K	303.15 K	308.15 K	313.15 K	318.15 K	323.15 K
100 kPa	2.507 mPa·s	2.272 mPa·s	2.07 mPa·s	–	1.741 mPa·s	–	1.457 mPa·s
101 kPa	2.453 mPa·s	2.223 mPa·s and 2.171 mPa·s	2.026 mPa·s	1.854 mPa·s	1.703 mPa·s	1.571 mPa·s	1.454 mPa·s

C=COCCCC
Conditions	viscosity [mPa·s]
308.15 K, 101 kPa	0.374

CC(=O)OC1CCCCC1
101 kPa
Conditions	viscosity [mPa·s]
300 K	1.95
310 K	1.61
320 K	1.36

CC12CC3CC(C)(C1)CC(C)(C3)C2
100 kPa
Conditions	viscosity
293.15 K	2.641 mPa·s and 2.61 mPa·s
298.15 K	2.376 mPa·s and 2.35 mPa·s
303.15 K	2.147 mPa·s
308.15 K	1.951 mPa·s
313.15 K	1.781 mPa·s and 1.76 mPa·s
318.15 K	1.633 mPa·s
323.15 K	1.502 mPa·s

CC=Cc1ccc(O)c(OC)c1
Conditions	viscosity [mPa·s]
298.15 K, 101 kPa	26.7

CCCCCCC
Conditions	viscosity
293.15 K, 100 kPa	0.379 mPa·s
293.15 K, 101 kPa	0.4002 mPa·s and 0.408 mPa·s
293.17 K, 101 kPa	0.409 mPa·s
293.2 K, 101.3 kPa	0.4084 mPa·s
296 K, 101.3 kPa	0.395 mPa·s and 0.397 mPa·s
298 K, 101.33 kPa	0.3899 mPa·s
298.15 K, 100 kPa	0.358 mPa·s
303 K, 101.33 kPa	0.374 mPa·s
303.15 K, 100 kPa	0.376 mPa·s and 0.337 mPa·s
303.15 K, 101.33 kPa	0.403 mPa·s and 0.381 mPa·s
308.15 K, 100 kPa	0.342 mPa·s and 0.318 mPa·s
308.15 K, 101.33 kPa	0.363 mPa·s
313.15 K, 100 kPa	0.301 mPa·s and 0.34 mPa·s
313.15 K, 101 kPa	0.331 mPa·s and 0.332 mPa·s and 0.3432 mPa·s
313.2 K, 101.3 kPa	0.3447 mPa·s
318.15 K, 101 kPa	0.326 mPa·s and 0.314 mPa·s and 0.3269 mPa·s
318.15 K, 101.33 kPa	0.317 mPa·s
323 K, 101.33 kPa	0.308 mPa·s
323.1 K, 101.3 kPa	0.3182 mPa·s
323.15 K, 101 kPa	0.3039 mPa·s

CCCCCCCC
Conditions	viscosity
293.15 K, 100 kPa	0.547 mPa·s and 0.512 mPa·s
293.15 K, 101 kPa	0.556 mPa·s and 0.539 mPa·s
298.15 K, 100 kPa	0.517 mPa·s and 0.48 mPa·s
298.15 K, 101.32 kPa	0.507 mPa·s
303.15 K, 100 kPa	0.452 mPa·s
303.15 K, 101 kPa	0.482 mPa·s
303.15 K, 101.33 kPa	0.4865 mPa·s and 0.479 mPa·s (2×) and 0.479 mPa·s
308.15 K, 100 kPa	0.468 mPa·s and 0.425 mPa·s
308.16 K, 101.3 kPa	0.4568 mPa·s
313.15 K, 100 kPa	0.447 mPa·s and 0.4 mPa·s and 0.429 mPa·s
318.15 K, 101.33 kPa	0.403 mPa·s
318.16 K, 101 kPa	0.4138 mPa·s
323.15 K, 100 kPa	0.385 mPa·s
323.15 K, 101 kPa	0.4049 mPa·s

CCCCCCCCCCCCCC
Conditions	viscosity
293.15 K, 101.33 kPa	2.282 mPa·s and 2.292 mPa·s and 2.292 mPa·s
298 K, 101.33 kPa	2.074 mPa·s
298.15 K, 100 kPa	2.15 mPa·s
298.15 K, 101.33 kPa	2.088 mPa·s and 2.091 mPa·s and 2.025 mPa·s
298.15 K, 103 kPa	2.048 mPa·s
303.15 K, 101 kPa	1.895 mPa·s and 1.895 mPa·s
303.15 K, 101.33 kPa	1.864 mPa·s
308.15 K, 101 kPa	1.715 mPa·s and 1.715 mPa·s
308.15 K, 103 kPa	1.685 mPa·s
313.15 K, 100 kPa	1.612 mPa·s
313.15 K, 101.33 kPa	1.548 mPa·s
318.15 K, 101.33 kPa	1.356 mPa·s
318.15 K, 103 kPa	1.413 mPa·s
323.15 K, 101.33 kPa	1.314 mPa·s

CCCCCCCCCCCCCCCCCCC
Conditions	viscosity [mPa·s]
313.15 K, 101 kPa	3.49

CCCCCCCCCCCCCC[P+](CCCCCC)(CCCCCC)CCCCCC.N#C[N-]C#N
viscosity [mPa·s]
Conditions	293.15 K	298.15 K	303.15 K	308.15 K	313.15 K	318.15 K	323.15 K
100 kPa	603	442	331	253	196	155	124
101 kPa	–	440	328	–	196	–	123

CCCCCO
Conditions	viscosity
293.15 K, 100 kPa	4.057 mPa·s and 4.155 mPa·s and 3.964 mPa·s
293.15 K, 101 kPa	3.939 mPa·s and 3.99 mPa·s and 4.06 mPa·s
293.15 K, 101.33 kPa	3.675 mPa·s and 4.109 mPa·s and 4.109 mPa·s
298.15 K, 100 kPa	3.512 mPa·s and 3.595 mPa·s
298.15 K, 101.3 kPa	3.302 mPa·s
303.15 K, 101.3 kPa	3 mPa·s and 2.832 mPa·s
308.15 K, 101.3 kPa	2.449 mPa·s
313.15 K, 101.3 kPa	2.3 mPa·s and 2.344 mPa·s
318 K, 101.3 kPa	2.075 mPa·s
318.15 K, 100 kPa	2.085 mPa·s
318.15 K, 101.3 kPa	2.066 mPa·s
323 K, 101.3 kPa	1.853 mPa·s
323.15 K, 101 kPa	1.784 mPa·s
